Experimental data published in patent US20060142312A1, “C6-aryl and heteroaryl substituted pyrido[2,3-D] pyrimidin-7-ones” (PFIZER INC, priority 2004, published 2006).

melting point | Compound
185 °C (dec.) | Cc1c(C(O)c2ccccc2)c(=O)n(C2CCCC2)c2nc(Nc3ccc(N4CCNCC4)cc3)ncc12 (centres unmarked) [Example 31, 8-Cyclopentyl-6-(hydroxy-phenyl-methyl)-5-methyl-2-(4-piperazin-1-yl-phenylamino)-8H-pyrido[2,3-d]pyrimidin-7-one]
289.2 to 290 °C | Cc1ccc(Cc2cc3cnc(Nc4ccc(N5CCOC5=O)cc4)nc3n(C3CCCC3)c2=O)cc1 [Example 103, 8-Cyclopentyl-6-(4-methyl-benzyl)-2-[4-(2-oxo-oxazolidin-3-yl)-phenylamino]-8H-pyrido[2,3-d]pyrimidin-7-one]
200 to 203 °C | Cc1cccc(Cc2cc3cnc(Nc4ccc(N5CCNCC5)cc4)nc3n(C3CCCC3)c2=O)c1 [Example 70, 8-Cyclopentyl-6-(3-methyl-benzyl)-2-(4-piperazin-1-yl-phenylamino)-8H-pyrido[2,3-d]pyrimidin-7-one]
216 to 219 °C | CC(C)S(=O)(=O)N1CCC(Nc2ncc3cc(Cc4ccccn4)c(=O)n(C4CCCC4)c3n2)CC1 [Example 35, 8-Cyclopentyl-2-[1-(propane-2-sulfonyl)-piperidin-4-ylamino]-6-pyridin-2-ylmethyl-8H-pyrido[2,3-d]pyrimidin-7-one]
154 to 155 °C | CCCN1CCC(Nc2ncc3cc(Cc4ccc(C)cc4)c(=O)n(C4CCCC4)c3n2)CC1 [Example 59, 8-Cyclopentyl-6-(4-methyl-benzyl)-2-(1-propyl-piperidin-4-ylamino)-8H-pyrido[2,3-d]pyrimidin-7-one]
114 to 116 °C | Cc1ccc(Cc2cc3cnc(NCCCN4CCOCC4)nc3n(C3CCCC3)c2=O)cc1 [Example 76, 8-Cyclopentyl-6-(4-methyl-benzyl)-2-(3-morpholin-4-yl-propylamino)-8H-pyrido[2,3-d]pyrimidin-7-one]
178 to 183 °C | Cc1ccccc1Cc1cc2cnc(NC3CCC(N(C)C)CC3)nc2n(C2CCCC2)c1=O (centres unmarked) [Example 64, 8-Cyclopentyl-2-(4-dimethylamino-cyclohexylamino)-6-(2-methyl-benzyl)-8H-pyrido[2,3-d]pyrimidin-7-one]
164 to 170 °C | O=C(O)CCNc1ncc2cc(Cc3ccccc3)c(=O)n(C3CCCC3)c2n1 [Example 52, 3-(6-Benzyl-8-cyclopentyl-7-oxo-7,8-dihydro-pyrido[2,3-d]pyrimidin-2-ylamino)-propionic acid]
175 to 181 °C | CCc1ccc(Cc2cc3cnc(NC4CCC(N(C)C)CC4)nc3n(C3CCCC3)c2=O)cc1 (centres unmarked) [Example 67, 8-Cyclopentyl-2-(4-dimethylamino-cyclohexylamino)-6-(4-ethyl-benzyl)-8H-pyrido[2,3-d]pyrimidin-7-one]
175 °C | CCc1ccc(Cc2cc3cnc(Nc4ccc(N5CCNCC5)cc4)nc3n(C3CCCC3)c2=O)cc1 [Example 71, 8-Cyclopentyl-6-(4-ethyl-benzyl)-2-(4-piperazin-1-yl-phenylamino)-8H-pyrido[2,3-d]pyrimidin-7-one]
144 to 146 °C | CNc1ncc2cc(Cc3ccccc3)c(=O)n(C3CCCC3)c2n1 [Example 47, 6-Benzyl-8-cyclopentyl-2-methylamino-8H-pyrido[2,3-d]pyrimidin-7-one]
182 to 183 °C | CN1CCN(S(=O)(=O)N2CCC(Nc3ncc4cc(Cc5ccccc5)c(=O)n(C5CCCC5)c4n3)CC2)CC1 [Example 33, 6-Benzyl-8-cyclopentyl-2-[1-(4-methyl-piperazine-1-sulfonyl)-piperidin-4-ylamino]-8H-pyrido[2,3-d]pyrimidin-7-one]
140 to 145 °C | CC(C)c1ccc(Cc2cc3cnc(Nc4ccc(N5CCNCC5)cc4)nc3n(C3CCCC3)c2=O)cc1 [Example 72, 8-Cyclopentyl-6-(4-isopropyl-benzyl)-2-(4-piperazin-1-yl-phenylamino)-8H-pyrido[2,3-d]pyrimidin-7-one]
< 60 °C | CN(CCO)c1ncc2cc(Cc3ccccc3)c(=O)n(C3CCCC3)c2n1 [Example 48, 6-Benzyl-8-cyclopentyl-2-[(2-hydroxy-ethyl)-methyl-amino]-8H-pyrido[2,3-d]pyrimidin-7-one]
143 to 145 °C | CCCN1CCC(Nc2ncc3cc(Cc4ccccc4)c(=O)n(C4CCCC4)c3n2)CC1 [Example 45, 6-Benzyl-8-cyclopentyl-2-(1-propyl-piperidin-4-ylamino)-8H-pyrido[2,3-d]pyrimidin-7-one]
128 to 130 °C | O=c1c(Cc2ccccc2)cc2cnc(NC3CCCCC3)nc2n1C1CCCC1 [Example 41, 6-Benzyl-2-cyclohexylamino-8-cyclopentyl-8H-pyrido[2,3-d]pyrimidin-7-one]
134 to 137 °C | Cc1ccccc1Cc1cc2cnc(NCCN3CCOCC3)nc2n(C2CCCC2)c1=O [Example 73, 8-Cyclopentyl-6-(2-methyl-benzyl)-2-(2-morpholin-4-yl-ethylamino)-8H-pyrido[2,3-d]pyrimidin-7-one]
177 to 179 °C | O=c1c(Cc2ccccc2)cc2cnc(NCCO)nc2n1C1CCCC1 [Example 42, 6-Benzyl-8-cyclopentyl-2-(2-hydroxy-ethylamino)-8H-pyrido[2,3-d]pyrimidin-7-one]
210 to 212 °C | CC(C)S(=O)(=O)N1CCC(Nc2ncc3cc(Cc4ccccc4)c(=O)n(C4CCCC4)c3n2)CC1 [Example 34, 6-Benzyl-8-cyclopentyl-2-[1-(propane-2-sulfonyl)-piperidin-4-ylamino]-8H-pyrido[2,3-d]pyrimidin-7-one]
88 to 91 °C | Cc1ccc(Cc2cc3cnc(NCCN4CCOCC4)nc3n(C3CCCC3)c2=O)cc1 [Example 75, 8-Cyclopentyl-6-(4-methyl-benzyl)-2-(2-morpholin-4-yl-ethylamino)-8H-pyrido[2,3-d]pyrimidin-7-one]
123 to 124 °C | Cc1ccc(Cc2cc3cnc(NCCCN4CCN(C)CC4)nc3n(C3CCCC3)c2=O)cc1 [Example 78, 8-Cyclopentyl-6-(4-methyl-benzyl)-2-[3-(4-methyl-piperazin-1-yl)-propylamino]-8H-pyrido[2,3-d]pyrimidin-7-one]
115 to 117 °C | CN(C)c1ncc2cc(Cc3ccccc3)c(=O)n(C3CCCC3)c2n1 [Example 49, 6-Benzyl-8-cyclopentyl-2-dimethylamino-8H-pyrido[2,3-d]pyrimidin-7-one]
156 to 160 °C | CCCN1CCC(Nc2ncc3cc(Cc4ccc(C(C)C)cc4)c(=O)n(C4CCCC4)c3n2)CC1 [Example 63, 8-Cyclopentyl-6-(4-isopropyl-benzyl)-2-(1-propyl-piperidin-4-ylamino)-8H-pyrido[2,3-d]pyrimidin-7-one]
190 °C (dec.) | Cc1c(C(=O)c2ccccc2)c(=O)n(C2CCCC2)c2nc(Nc3ccc(N4CCNCC4)cc3)ncc12 [Example 32, 6-Benzoyl-8-cyclopentyl-5-methyl-2-(4-piperazin-1-yl-phenylamino)-8H-pyrido[2,3-d]pyrimidin-7-one]
133 to 134 °C | CCCN1CCC(Nc2ncc3cc(Cc4ccccn4)c(=O)n(C4CCCC4)c3n2)CC1 [Example 88, 8-Cyclopentyl-2-(1-propyl-piperidin-4-ylamino)-6-pyridin-2-ylmethyl-8H-pyrido[2,3-d]pyrimidin-7-one]
161 to 163 °C | O=c1c(Cc2ccccc2)cc2cnc(Nc3ccccc3)nc2n1C1CCCC1 [Example 44, 6-Benzyl-8-cyclopentyl-2-phenylamino-8H-pyrido[2,3-d]pyrimidin-7-one]
